Legend:
[1] = Release in vitro of anticancer drugs from the radiopaque microspheres; type: physicochemical; conditions: for Time for 50% release / Time for complete release / % elution at 1 h: microspheres with methacrylic acid, 37° C., 150 rpm; for % elution at 1 h: pH 7.4 buffer
Description: To study the release of doxorubicin from the microspheres, the sediments are washed in 10 mL of water, before adding 50 mL of buffer 50 mM Tris-HCl, 0.9% NaCl, pH 7.4. Incubation takes place at 37° C. with stirring. The release of doxorubicin is measured at different times at 490 nm.
To study the release of irinotecan, the microspheres are washed in 10 mL of water, and then 50 mL of PBS (10 mM Na2HPO4, 1.8 mM KH2PO4, 138 mM NaCl, 2.7 mM KCl, pH 7.4) equilibrated at 37° C. is added. The release of the drug over time is measured by reading the absorbance at 370 nm.
To study the release of sunitinib, the microspheres are washed in 10 mL of water, and then 50 mL of PBS equilibrated at 37° C. is added. The release of the drug over time is measured by reading the absorbance at 405 nm.
To study the release of vandetanib, the microspheres are washed in 10 mL of water, and then 50 mL of PBS equilibrated at 37° C. is added. The release of the drug over time is measured by reading the absorbance at 254 nm.

[2] = Loading of anticancer drugs on the radiopaque microspheres; type: physicochemical
Description: The tests of loading and controlled release of anticancer drugs were performed on radiopaque microspheres of 100-300 µm sterilized by autoclaving and comprising or not comprising an ionized or ionizable monomer such as methacrylic acid.
The microspheres with methacrylic acid are microspheres from batch 13, the composition of which is given in example 3. The microspheres without methacrylic acid have the same composition as the microspheres from batches L1 and L1Bis described in example 5.
Loading with doxorubicin: the target for loading is 37.5 mg of doxorubicin per ml of microspheres. For this, 3.8 mL of doxorubicin-HCl (Adriblastine®, Pfizer) in solution in water at 2.5 mg/mL is added to 250 µL of wet sediment of microspheres. After mixing by inversion, the suspension is made up to 6 mM with sodium bicarbonate (Lavoisier). Loading is carried out at room temperature and with stirring for one hour. Measurement of the residual amount of doxorubicin (absorbance at 490 nm) present in the supernatants serves for determining the amount of drug loaded on the microspheres.
Loading with irinotecan: the loading target is 50 mg of irinotecan per mL of microspheres. […] After 30 minutes, measurement of the residual amount of irinotecan (absorbance at 370 nm) in the supernatant serves for determining the amount loaded on the microspheres.
Loading with sunitinib: The sediments of the radiopaque microspheres are incubated for 1 h at room temperature in 10 mL of sunitinib in the form of malate (LC Laboratories) at 1 mg/mL in water. […] After stirring for 1 h on a wheel, measurement of the residual amount of sunitinib (absorbance at 405 nm) in the supernatant serves for determining the amount loaded on the microspheres.
Loading with vandetanib: The sediments of the radiopaque microspheres are incubated for 2 h at room temperature in 10 mL of a water/DMSO (1/1) mixture containing 5 mg of vandetanib (LC Laboratories). The residual amount of vandetanib in the supernatants is measured at 254 nm in order to calculate the amount loaded on the microspheres. […]

[3] = 100-300 µm radiopaque microspheres with methacrylic acid (batch 13)

| Release (elution in PBS), in words ([1]; compared with irinotecan) | Time for 50% release [1] [days] | Time for complete release [1] | % elution at 1 h [1] [%] | Loading (mg of drug / mL of wet sediment) [2, 3] | Loading (mg of drug / mL of wet sediment) ([2]; 100-300 µm radiopaque microspheres without methacrylic acid) | Compound |
| --- | --- | --- | --- | --- | --- | --- |
| slower, being spread over several days | 1 | 1 week | 26 | 36.8 mg of drug / mL of wet sediment | 29.8 mg of drug / mL of wet sediment | COc1cccc2c1C(=O)c1c(O)c3c(c(O)c1C2=O)C[C@@](O)(C(=O)CO)C[C@@H]3O[C@H]1C[C@H](N)[C@H](O)[C@H](C)O1 [Doxorubicin, doxorubicin] |
| – | 0.042 | 1 days | 50 | 46 mg of drug / mL of wet sediment | – | CCc1c2c(nc3ccc(OC(=O)N4CCC(N5CCCCC5)CC4)cc13)-c1cc3c(c(=O)n1C2)COC(=O)[C@]3(O)CC [Irinotecan, irinotecan] |

From patent US20230285601A1, “NON DEGRADABLE RADIO-OPAQUE EMBOLISATION MICROSPHERE” (GUERBET, priority 2019, published 2023)
